Assay results taken from EP4043466B1, “PRC2 INHIBITORS” (Mirati Therapeutics, Inc., priority 2018, dated 2019).

target: purified human, His-tagged PRC2 complex (Homo sapiens, UniProt O75530+Q15910); assay: Hot Spot HMT assay: inhibition of PRC2 enzymatic activity (transfer of tritiated methyl from SAM to core histone, filter binding); type: biochemical; settings: Inhibition of PRC2-mediated enzymatic activity; 10 nM PRC2 complex, 0.05 mg/ml core histone H3, 1 uM 3H-SAM, 1 hr at 30°C
Text: The assay uses purified human, His-tagged PRC2 complex, including N-terminal His-tagged EZH2 enzyme, N-terminal Flag-tagged embryonic ectoderm development protein (EED), N-terminal His-tagged suppressor of zeste 12 (SUZ12), N-terminal His-tagged AEBP2, and N-terminal His-tagged RbAp48. In this assay, the transfer of the tritiated methyl group from radiolabeled S-adenosyl methionine (SAM) to purified core histone protein by EZH2 is quantitated after filtration to determine the activity of the core PRC2 complex in the presence and absence of compound.
The initial starting concentration for the serial dilutions of each compound was 1.0 µM. […] SAH (S-(5-adenosyl)-L-homocysteine) was used as a positive control for assay validation.
An aliquot of each serial dilution of test compound was added to deep 384 well plate using Acoustic Technology instrument (Echo 550, LabCyte) containing reaction buffer (50 mM Tris-HCl (pH 8.)), 0.01% Brij35, 1 mM EDTA, 1 mM DTT, 1 mM PMSF and 1% DMSO), 10 nM purified PRC2 complex and 0.05 mg/ml core histone H3 in a 5 µl volume. The reaction was mixed gently and then pre-incubated for 20 min at 30°C. The enzymatic reaction was initiated by adding 1 uM S-Adenosyl-L-[methyl - ^3H]methionine and incubated for 1 hr at 30°C. After 1 hr, the reaction product was detected using a filter binding method and the amount of tritiated H3 core histone was quantitated using a scintillation counter.

Sequence of purified human, His-tagged PRC2 complex (Q15910 whole entry): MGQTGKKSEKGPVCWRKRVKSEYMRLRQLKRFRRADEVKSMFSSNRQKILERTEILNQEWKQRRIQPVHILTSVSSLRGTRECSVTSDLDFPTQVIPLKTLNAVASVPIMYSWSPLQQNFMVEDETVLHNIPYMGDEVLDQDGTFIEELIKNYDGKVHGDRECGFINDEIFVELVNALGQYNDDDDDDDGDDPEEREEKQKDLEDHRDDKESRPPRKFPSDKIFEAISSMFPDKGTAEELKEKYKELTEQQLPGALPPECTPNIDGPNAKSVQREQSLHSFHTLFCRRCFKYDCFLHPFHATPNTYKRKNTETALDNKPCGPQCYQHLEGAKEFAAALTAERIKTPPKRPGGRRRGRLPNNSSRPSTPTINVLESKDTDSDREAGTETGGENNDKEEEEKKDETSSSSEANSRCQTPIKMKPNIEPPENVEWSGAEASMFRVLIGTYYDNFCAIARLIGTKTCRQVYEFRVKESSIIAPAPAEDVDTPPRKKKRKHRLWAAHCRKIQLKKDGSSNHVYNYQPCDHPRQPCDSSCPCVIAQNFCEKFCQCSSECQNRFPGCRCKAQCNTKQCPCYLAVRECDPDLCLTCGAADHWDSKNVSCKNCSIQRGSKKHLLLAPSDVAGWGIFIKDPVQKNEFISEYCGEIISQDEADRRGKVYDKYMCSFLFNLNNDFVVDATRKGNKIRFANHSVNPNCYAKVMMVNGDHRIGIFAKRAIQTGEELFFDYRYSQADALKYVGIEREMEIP
Sequence of purified human, His-tagged PRC2 complex (O75530 whole entry): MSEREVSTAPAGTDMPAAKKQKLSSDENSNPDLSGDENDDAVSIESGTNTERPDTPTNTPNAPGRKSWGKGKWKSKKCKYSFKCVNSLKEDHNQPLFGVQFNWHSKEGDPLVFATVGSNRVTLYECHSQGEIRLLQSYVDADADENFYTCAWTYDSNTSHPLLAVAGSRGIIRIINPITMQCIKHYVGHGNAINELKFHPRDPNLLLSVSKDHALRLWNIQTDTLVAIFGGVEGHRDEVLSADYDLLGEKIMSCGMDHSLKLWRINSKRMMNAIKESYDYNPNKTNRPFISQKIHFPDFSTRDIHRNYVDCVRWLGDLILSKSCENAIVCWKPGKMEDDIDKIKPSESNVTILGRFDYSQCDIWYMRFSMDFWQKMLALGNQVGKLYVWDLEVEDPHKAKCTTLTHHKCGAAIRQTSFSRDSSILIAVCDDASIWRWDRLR
Sequence of purified human, His-tagged PRC2 complex (Q15022 whole entry partner): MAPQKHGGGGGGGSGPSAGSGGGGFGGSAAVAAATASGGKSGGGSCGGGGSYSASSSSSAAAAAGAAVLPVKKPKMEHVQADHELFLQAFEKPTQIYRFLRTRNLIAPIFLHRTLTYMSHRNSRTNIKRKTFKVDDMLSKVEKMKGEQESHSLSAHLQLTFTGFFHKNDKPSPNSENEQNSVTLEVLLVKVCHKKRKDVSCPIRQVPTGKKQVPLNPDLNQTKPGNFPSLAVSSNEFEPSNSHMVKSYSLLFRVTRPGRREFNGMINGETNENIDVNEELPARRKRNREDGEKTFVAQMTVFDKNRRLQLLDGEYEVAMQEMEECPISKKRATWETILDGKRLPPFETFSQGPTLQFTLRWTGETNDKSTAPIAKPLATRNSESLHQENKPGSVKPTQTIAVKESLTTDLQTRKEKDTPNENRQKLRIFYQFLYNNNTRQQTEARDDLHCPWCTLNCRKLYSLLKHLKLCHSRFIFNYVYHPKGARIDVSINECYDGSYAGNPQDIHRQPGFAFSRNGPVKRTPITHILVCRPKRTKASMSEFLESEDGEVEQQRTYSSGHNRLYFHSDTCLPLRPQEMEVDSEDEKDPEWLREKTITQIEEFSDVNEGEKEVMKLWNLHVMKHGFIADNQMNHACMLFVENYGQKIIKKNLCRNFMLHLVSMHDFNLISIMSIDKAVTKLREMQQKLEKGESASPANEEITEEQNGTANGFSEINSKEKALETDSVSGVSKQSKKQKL
Sequence of purified human, His-tagged PRC2 complex (Q6ZN18 whole entry partner): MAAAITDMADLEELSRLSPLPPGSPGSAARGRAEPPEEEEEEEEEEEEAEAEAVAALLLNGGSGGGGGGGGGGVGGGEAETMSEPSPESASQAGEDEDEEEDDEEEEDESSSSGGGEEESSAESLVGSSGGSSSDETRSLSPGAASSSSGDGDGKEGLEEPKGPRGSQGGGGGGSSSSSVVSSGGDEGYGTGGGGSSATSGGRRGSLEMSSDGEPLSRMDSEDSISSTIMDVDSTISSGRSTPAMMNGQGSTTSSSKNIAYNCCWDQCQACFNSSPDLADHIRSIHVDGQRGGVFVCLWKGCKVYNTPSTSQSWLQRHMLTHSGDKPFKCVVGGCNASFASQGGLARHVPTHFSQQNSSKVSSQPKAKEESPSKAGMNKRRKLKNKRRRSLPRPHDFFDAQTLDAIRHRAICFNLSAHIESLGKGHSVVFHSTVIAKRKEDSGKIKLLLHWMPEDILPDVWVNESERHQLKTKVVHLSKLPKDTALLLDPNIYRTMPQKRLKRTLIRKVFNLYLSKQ
Sequence of purified human, His-tagged PRC2 complex (Q09028 whole entry partner): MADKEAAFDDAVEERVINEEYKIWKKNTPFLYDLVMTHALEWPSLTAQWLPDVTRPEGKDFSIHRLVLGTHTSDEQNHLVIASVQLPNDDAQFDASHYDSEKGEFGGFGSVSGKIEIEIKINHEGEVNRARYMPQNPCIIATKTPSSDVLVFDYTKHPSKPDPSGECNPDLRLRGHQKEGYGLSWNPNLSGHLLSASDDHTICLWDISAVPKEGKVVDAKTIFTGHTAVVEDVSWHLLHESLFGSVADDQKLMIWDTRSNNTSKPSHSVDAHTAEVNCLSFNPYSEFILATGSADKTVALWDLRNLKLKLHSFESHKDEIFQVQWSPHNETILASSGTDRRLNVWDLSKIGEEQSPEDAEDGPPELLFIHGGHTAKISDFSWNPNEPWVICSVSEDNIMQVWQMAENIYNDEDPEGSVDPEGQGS

**Q.** Cc1cc(-c2cnc(NCc3cccc4c3OCO4)n3cc(C#N)nc23)n(C)n1 [Example 27, 5-((benzo[d][1,3]dioxol-4-ylmethyl)amino)-8-(1,3-dimethyl-1H-pyrazol-5-yl)imidazo[1,2-c]pyrimidine-2-carbonitrile] was tested. Which IC50 did it give?
**A.** The IC50 was greater than 500 nM.

**Q.** With Cc1cc(-c2cnc(NCc3cccc4c3CCO4)n3cc(C#N)nc23)n(C)n1 [Example 30, 5-(((2,3-dihydrobenzofuran-4-yl)methyl)amino)-8-(1,3-dimethyl-1H-pyrazol-5-yl)imidazo[1,2-c]pyrimidine-2-carbonitrile] as the molecule, how does the IC50 read?
**A.** The IC50 was 100 to 500 nM.

**Q.** With CN(C)C(=O)c1ccc(-c2cnc(NCc3c(F)ccc4c3CCO4)n3cc(C#N)nc23)c(Cl)c1F [Example 34, 3-chloro-4-(2-cyano-5-(((5-fluoro-2,3-dlhydrobenzofuran-4-yl)methyl)amino)imidazo[1,2-c]pyrimidin-8-yl)-2-fluoro-N,N-dimethylbenzamide] as the molecule, how does the IC50 read?
**A.** Its IC50 is less than 100 nM.

**Q.** With CN(C)C(=O)c1cc(Cl)c(-c2cnc(NCc3c(F)ccc4c3CCO4)n3cc(C#N)nc23)cc1F [Example 35, 5-chloro-4-(2-cyano-5-(((5-fluoro-2,3-dlhydrobenzofuran-4-yl)methyl)amino)imidazo[1,2-c]pyrimidin-8-yl)-2-fluoro-N,N-dimethylbenzamide] as the molecule, how does the IC50 read?
**A.** Its IC50 is less than 100 nM.

**Q.** N#Cc1cn2c(NCc3c(F)ccc4c3CCO4)ncc(-c3ccc(CN4CCC(F)(F)C4)cc3)c2n1 [Example 55, 8-(4-((3,3-difluoropyrrolidin-1-yl)methyl)phenyl)-5-(((5-fluoro-2,3-dihydrobenzofuran-4-yl)methyl)amino)imidazo[1,2-c]pyrimidine-2-carbonitrile] was tested. Which IC50 did it give?
**A.** The IC50 was less than 100 nM.

**Q.** With Cc1n[nH]cc1-c1cnc(NCc2c(F)ccc3c2CCO3)n2cc(C#N)nc12 [Example 79, 5-(((5-fluoro-2,3-dihydrobenzofuran-4-yl)methyl)amino)-8-(3-methyl-1H-pyrazol-4-yl)imidazo[1,2-c]pyrimidine-2-carbonitrile] as the molecule, how does the IC50 read?
**A.** Its IC50 is less than 100 nM.

**Q.** Which IC50 does the source give for CN(C)Cc1ccc(-c2cnc(NCc3c(F)ccc4c3CCO4)n3cc(C#N)nc23)c(Cl)c1F [Example 83, 8-(2-chloro-4-((dimethylamino)methyl)-3-fluorophenyl)-5-(((5-fluoro-2,3-dihydrobenzofuran-4-yl)methyl)amino)imidazo[1,2-c]pyrimidine-2-carbonitrile] here?
**A.** Its IC50 is less than 100 nM.

**Q.** How did the IC50 turn out when COc1cc(Cl)c(-c2cnc(NCc3c(F)ccc4c3CCO4)n3cc(C#N)nc23)cn1 [Example 91, 8-(4-chloro-6-methoxypyridin-3-yl)-5-(((5-fluoro-2,3-dihydrobenzofuran-4-yl)methyl)amino)imidazo[1,2-c]pyrimidine-2-carbonitrile] was run?
**A.** Its IC50 is 100 to 500 nM.

**Q.** For Cc1nn(C(C)C)c(C)c1-c1cnc(NCc2c(F)ccc3c2CCO3)n2cc(C#N)nc12 [Example 92, 5-(((5-fluoro-2,3-dihydrobenzofuran-4-yl)methyl)amino)-8-(1-isopropyl-3,5-dlmethyl-1H-pyrazol-4-yl)imidazo[1,2-c]pyrimidine-2-carbonitrile], which IC50 is on record?
**A.** Its IC50 is 100 to 500 nM.

**Q.** With COc1cncc(-c2cnc(NCc3c(F)ccc4c3CCO4)n3cc(C#N)nc23)c1 [Example 93, 5-(((5-fluoro-2,3-dihydrobenzofuran-4-yl)methyl)amino)-8-(5-methoxypyridin-3-yl)imidazo[1,2-c]pyrimidine-2-carbonitrile] as the molecule, how does the IC50 read?
**A.** Its IC50 is 100 to 500 nM.

**Q.** COc1ccc(-c2cnc(NCc3c(F)ccc4c3CCO4)n3cc(C#N)nc23)cn1 [Example 94, 5-(((5-fluoro-2,3-dihydrobenzofuran-4-yl)methyl)amino)-8-(6-methoxypyridin-3-yl)imidazo[1,2-c]pyrimidine-2-carbonitrile] was tested. Which IC50 did it give?
**A.** Its IC50 is less than 100 nM.

**Q.** For N#Cc1cncc(-c2cnc(NCc3c(F)ccc4c3CCO4)n3cc(C#N)nc23)c1 [Example 95, 8-(5-cyanopyridin-3-yl)-5-(((5-fluoro-2,3-dihydrobenzofuran-4-yl)methyl)amino)imidazo[1,2-c]pyrimidine-2-carbonitrile], which IC50 is on record?
**A.** Its IC50 is less than 100 nM.

**Q.** CC(C)n1cc(-c2cnc(NCc3c(F)ccc4c3CCO4)n3cc(C#N)nc23)cn1 [Example 99, 5-(((5-fluoro-2,3-dihydrobenzofuran-4-yl)methyl)amino)-8-(1-isopropyl-1H-pyrazol-4-yl)imidazo[1,2-c]pyrimidine-2-carbonitrile] was tested. Which IC50 did it give?
**A.** Its IC50 is less than 100 nM.

**Q.** How did the IC50 turn out when N#Cc1cn2c(NCc3c(F)ccc4c3CCO4)ncc(-c3cnn(Cc4cccnc4)c3)c2n1 [Example 101, 5-(((5-fluoro-2,3-dihydrobenzofuran-4-yl)methyl)amino)-8-(1-(pyridin-3-ylmethyl)-1H-pyrazol-4-yl)imidazo[1,2-c]pyrimidine-2-carbonitrile] was run?
**A.** The IC50 was 100 to 500 nM.

**Q.** How did the IC50 turn out when CN(C)CCn1cc(-c2cnc(NCc3c(F)ccc4c3CCO4)n3cc(C#N)nc23)cn1 [Example 102, 8-(1-(2-(dimethylamino)ethyl)-1H-pyrazol-4-yl)-5-(((5-fluoro-2,3-dihydrobenzofuran-4-yl)methyl)amino)imidazo[1,2-c]pyrimidine-2-carbonitrile] was run?
**A.** Its IC50 is 100 to 500 nM.

**Q.** CN(C)CCCn1cc(-c2cnc(NCc3c(F)ccc4c3CCO4)n3cc(C#N)nc23)cn1 [Example 103, 8-(1-(3-(dimethylamino)propyl)-1H-pyrazol-4-yl)-5-(((5-fluoro-2,3-dihydrobenzofuran-4-yl)methyl)amino)imidazo[1,2-c]pyrimidine-2-carbonitrile] was tested. Which IC50 did it give?
**A.** Its IC50 is 100 to 500 nM.

**Q.** With Cc1n[nH]c(C)c1-c1cnc(NCc2c(F)ccc3c2CCO3)n2cc(C#N)nc12 [Example 104, 8-(3,5-dimethyl-1H-pyrazol-4-yl)-5-(((5-fluoro-2,3-dihydrobenzofuran-4-yl)methyl)amino)imidazo[1,2-c]pyrimidine-2-carbonitrile] as the molecule, how does the IC50 read?
**A.** The IC50 was greater than 500 nM.

**Q.** With N#Cc1cn2c(NCc3c(F)ccc4c3CCO4)ncc(-c3cnn(C4CCOC4)c3)c2n1 (stereo not shown) [Example 107, 5-(((5-fluoro-2,3-dihydrobenzofuran-4-yl)methyl)amino)-8-(1-(tetrahydrofuran-3-yl)-1H-pyrazol-4-yl)imidazo[1,2-c]pyrimidine-2-carbonitrile] as the molecule, how does the IC50 read?
**A.** The IC50 was 100 to 500 nM.

**Q.** With N#Cc1cn2c(NCc3c(F)ccc4c3CCO4)ncc(-c3cnccc3Cl)c2n1 [Example 109, 8-(4-chloropyridin-3-yl)-5-(((5-fluoro-2,3-dihydrobenzofuran-4-yl)methyl)amino)imidazo[1,2-c]pyrimidine-2-carbonitrile] as the molecule, how does the IC50 read?
**A.** The IC50 was less than 100 nM.

**Q.** For N#Cc1cn2c(NCc3c(F)ccc4c3CCO4)ncc(-c3cnn(C4CCOCC4)c3)c2n1 [Example 120, 5-(((5-fluoro-2,3-dihydrobenzofuran-4-yl)methyl)amino)-8-(1-(tetrahydro-2H-pyran-4-yl)-1H-pyrazol-4-yl)imidazo[1,2-c]pyrimidine-2-carbonitrile], which IC50 is on record?
**A.** Its IC50 is greater than 500 nM.

**Q.** COc1cc(-c2cnc(NCc3c(F)ccc4c3CCO4)n3cc(C#N)nc23)c(OC)cn1 [Example 125, 8-(2,5-dimethoxypyridin-4-yl)-5-(((5-fluoro-2,3-dihydrobenzofuran-4-yl)methyl)amino)imidazo[1,2-c]pyrimidine-2-carbonitrile] was tested. Which IC50 did it give?
**A.** The IC50 was less than 100 nM.

**Q.** With N#Cc1cn2c(NCc3c(F)ccc4c3CCO4)ncc(-c3ccc(C(F)(F)F)nc3)c2n1 [Example 126, 5-(((5-fluoro-2,3-dihydrobenzofuran-4-yl)methyl)amino)-8-(6-(trifluoromethyl)pyridin-3-yl)imidazo[1,2-c]pyrimidine-2-carbonitrile] as the molecule, how does the IC50 read?
**A.** Its IC50 is 100 to 500 nM.

**Q.** With CC(=O)Nc1cc(-c2cnc(NCc3c(F)ccc4c3CCO4)n3cc(C#N)nc23)ccn1 [Example 131, N-(4-(2-cyano-5-(((5-fluoro-2,3-dihydrobenzofuran-4-yl)methyl)amino)imidazo[1,2-c]pyrimidin-8-yl)pyridin-2-yl)acetamide] as the molecule, how does the IC50 read?
**A.** The IC50 was less than 100 nM.

**Q.** With N#Cc1cn2c(NCc3c(F)ccc4c3CCO4)ncc(-c3cnc(N)c(C(F)(F)F)c3)c2n1 [Example 134, 8-(6-amino-5-(trifluoromethyl)pyridin-3-yl)-5-(((5-fluoro-2,3-dihydrobenzofuran-4-yl)methyl)amino)imidazo[1,2-c]pyrimidine-2-carbonitrile] as the molecule, how does the IC50 read?
**A.** Its IC50 is 100 to 500 nM.

**Q.** N#Cc1cn2c(NCc3c(F)ccc4c3CCO4)ncc(-c3ccc(N4CCCCC4)nc3)c2n1 [Example 135, 5-(((5-fluoro-2,3-dihydrobenzofuran-4-yl)methyl)amino)-8-(6-(piperidin-1-yl)pyridin-3-yl)imidazo[1,2-c]pyrimidine-2-carbonitrile] was tested. Which IC50 did it give?
**A.** Its IC50 is less than 100 nM.

**Q.** For N#Cc1cn2c(NCc3c(F)ccc4c3CCO4)ncc(C3CCOCC3)c2n1 [Example 141, 5-(((5-fluoro-2,3-dihydrobenzofuran-4-yl)methyl)amino)-8-(tetrahydro-2H-pyran-4-yl)imidazo[1,2-c]pyrimidine-2-carbonitrile], which IC50 is on record?
**A.** The IC50 was greater than 500 nM.

**Q.** N#Cc1cn2c(NCc3c(F)ccc4c3CCO4)ncc(-c3ccc(CN4CCC(O)C4)cc3)c2n1 (stereo not shown) [Example 151, 5-(((5-fluoro-2,3-dihydrobenzofuran-4-yl)methyl)amino)-8-(4-((3-hydroxypyrrolidin-1-yl)methyl)phenyl)imidazo[1,2-c]pyrimidine-2-carbonitrile] was tested. Which IC50 did it give?
**A.** The IC50 was less than 100 nM.

**Q.** With Cc1cc(-c2cnc(NCc3c(F)ccc4c3C(O)CO4)n3cc(C#N)nc23)n(C)n1 (stereo not shown) [Example 155, 8-(1,3-dimethyl-1H-pyrazol-5-yl)-5-(((5-fluoro-3-hydroxy-2,3-dihydrobenzofuran-4-yl)methyl)amino)imidazo[1,2-c]pyrimidine-2-carbonitrile] as the molecule, how does the IC50 read?
**A.** Its IC50 is less than 100 nM.
